This passage reports IC50 results from patent US20220087996A1, “Histone acetylase p300 inhibitor and use thereof” (HINOVA PHARMACEUTICALS INC., priority 2018, published 2022).

A value given as a limit tells only on which side of the number the result lay.

For one test, the system named is CWR22RV1 cells. Kind of test: Inhibition of proliferation of CWR22RV1 cells (CCK-8). Conditions: 6 days culture, read-out: IC50 against CWR22RV1 cells. The test is classed as cell-based, human. The method, then: 1) CWR22RV1 cells were subcultured in cell culture medium, and the cells in good growth condition were seeded in a 96-well plate, 80 μL for each well, and the cell number in each well was 1500. The plate was incubated overnight in a 37° C., 5% CO2 cell incubator. 2) The drug was prepared as 30 mM stock solution with dimethyl sulfoxide (DMSO). Prior to use, the stock solution was diluted 3 times with DMSO, and then further diluted as 3-fold gradient to obtain 9 concentration gradients. Then, each concentration of compound was diluted 200 times with the culture solution (ensuring that the DMSO concentration in the culture system was 0.1%), and two replicate wells were set for each concentration. 20 μL of diluted compound solution was added to the cell culture well (with final concentrations of 10 μM, 3.3 μM. 1.1 μM . . . ), and the plate was gently shaken to mix. In addition, 3 negative control wells containing only cells and 3 blank control wells containing only culture medium were included (6 wells were each added 20 μL DMSO diluted 200 times with culture medium). 2. Result detection: (1) After culturing for 6 days, 10 μL CCK-8 was added to each well, and the plate was continually cultured in a 37° C., 5% CO2 cell incubator for 2.5 h. (2) The absorbance (OD value) was detected at 450 nm using a multifunctional microplate reader. (3) The data were analyzed by Dose-response-inhibition equation in the software GraphPad Prism6, and the IC50 value was obtained.
For orientation: IC50 means the point on the concentration scale where inhibition reaches its midpoint. On to `CNC(=O)Nc1ccc2c(c1)CC[C@@]21OC(=O)N(CC(=O)N2CCCC2c2ccccc2C)C1=O` (stereo partly drawn) [Example 11, 1-((1R)-2′,4′-dioxo-3′-(2-oxo-2-(2-(o-tolyl)pyrrolidin-1-yl)ethyl)-2,3-dihydrospiro[indene-1,5′-oxazolidine]-5-yl)-3-methylurea], for which the IC50 is 500 to 2000 nM. With `CNC(=O)Nc1ccc2c(c1)CC[C@@]21OC(=O)N(CC(=O)N2C(c3ccc(F)cc3)CCC2(C)C)C1=O` (stereo partly drawn) [Example 39, 1-((R)-3′-(2-(5-(4-fluorophenyl)-2,2-dimethylpyrrolidin-1-yl)-2-oxoethyl)-2′,4′-dioxo-2,3-dihydrospiro[indene-1,5′-oxazolidine]-5-yl)-3-methylurea], the IC50 lay in the range of 500 to 2000 nM. Consider `CNC(=O)Nc1ccc2c(c1)CC[C@@]21OC(=O)N(CC(=O)N2C[C@@H]3C[C@H]2CN3C(=O)OC(C)(C)C)C1=O` [Example 10, (1S,4S)-5-(2-((R)-5-(3-methylureido)-2′,4′-dioxo-2,3-dihydrospiro[indene-1,5′-oxazolidine]t-butyl-3′-yl)acetyl)-2,5-diazabicyclo[2.2.1]heptane-2-carboxylic Acid t-Butyl Ester], for which the half-maximal inhibitory concentration (IC50) was more than 2000 nM.

Staying with this test, now noted: Homo sapiens, CWR22Rv1, 144 h, 6 days culture, read-out: IC50 against CWR22RV1 cells.
`CNC(=O)Nc1ccc2c(c1)CC[C@@]21OC(=O)N(CC(=O)N2CCC[C@H]2c2ccccc2OC)C1=O` [compound 339]: the IC50 is more than 2000 nM. As for `CNC(=O)Nc1ccc2c(c1F)CC[C@]21OC(=O)N(CC(=O)N2[C@@H](C)CC[C@H]2c2cc(F)c(F)c(F)c2)C1=O` [Example 382, 1-((S)-4-fluoro-3′-(2-((2S,5S)-2-methyl-5-(3,4,5-trifluorophenyl)pyrrolidin-1-yl)-2-oxoethyl)-2′,4′-dioxo-2,3-dihydrospiro[indene-1,5′-oxazolidine]-5-yl)-3-methylurea], the concentration for half-maximal inhibition (IC50) was more than 2000 nM.

As to `CNC(=O)Nc1ccc2c(c1)CC[C@@]21OC(=O)N(CC(=O)N2CCCC2c2ccc(F)cc2C)C1=O` (stereo partly drawn) [Example 347, 1-((1R)-3′-(2-(2-(4-fluoro-2-methylphenyl)pyrrolidin-1-yl)-2-oxoethyl)-2′,4′-dioxo-2,3-dihydrospiro[indene-1,5′-oxazolidine]-5-yl)-3-methylurea], the IC50 was in the range of 500 to 2000 nM.

As for `CNC(=O)Nc1ccc2c(c1)CC[C@@]21OC(=O)N(Cc2ncc(-c3ccccc3)[nH]2)C1=O` [Example 110, (R)-1-(2′,4′-dioxo-3′-((5-phenyl-1H-imidazol-2-yl)methyl)-2,3-dihydrospiro[indene-1,5′-oxazolidine]-5-yl)-3-methylurea], the IC50 was more than 2000 nM.

Regarding `CNC(=O)Nc1ccc2c(c1)CC[C@@]21OC(=O)N(CC(=O)N2CCCC2c2cccc(OC)c2)C1=O` (stereo partly drawn) [Example 335, 1-((1R)-3′-(2-(2-(3-methoxyphenyl)pyrrolidin-1-yl)-2-oxoethyl)-2′,4′-dioxo-2,3-dihydrospiro[indene-1,5′-oxazolidine]-5-yl)-3-methylurea], the 50% inhibitory concentration (IC50) was more than 2000 nM. For `CNC(=O)Nc1ccc2c(c1)CC[C@@]21OC(=O)N(CC(=O)N2C(C)CCC2c2ccc(F)c(Cl)c2)C1=O` (stereo partly drawn) [Example 359, 1-((1R)-3′-(2-(2-(3-chloro-4-fluorophenyl)-5-methylpyrrolidin-1-yl)-2-oxoethyl)-2′,4′-dioxo-2,3-dihydrospiro[indene-1,5′-oxazolidine]-5-yl)-3-methylurea], the 50% inhibitory concentration (IC50) was not above 500 nM. In the case of `CNC(=O)Nc1ccc2c(c1)CC[C@@]21OC(=O)N(CC(=O)N2[C@@H](C)CC[C@H]2C2CCCCC2)C1=O` [Example 357, 1-((R)-3′-(2-((2S,5S)-2-cyclohexyl-5-methylpyrrolidin-1-yl)-2-oxoethyl)-2′,4′-dioxo-2,3-dihydrospiro[indene-1,5′-oxazolidine]-5-yl)-3-methylurea], the IC50 is not above 500 nM. Turning to `CNC(=O)Nc1ccc2c(c1)CC[C@@]21OC(=O)N(CC(=O)N2C[C@@H]3C[C@@H]2CO3)C1=O` [Example 103], the IC50 was more than 2000 nM. For `CCc1cc(F)ccc1C1CCC(C)N1C(=O)CN1C(=O)O[C@@]2(CCc3cc(NC(=O)NC)ccc32)C1=O` (stereo partly shown) [compound 358], the IC50 was 500 to 2000 nM.

In the case of `CNC(=O)Nc1ccc2c(c1)CC[C@@]21OC(=O)N(CC(=O)N2C(c3ccc(F)cc3)CCC2(C)C)C1=O` (stereo partly drawn) [Example 365, 1-((1R)-3′-(2-(5-(4-fluorophenyl)-2,2-dimethylpyrrolidin-1-yl)-2-oxoethyl)-2′,4′-dioxo-2,3-dihydrospiro[indene-1,5′-oxazolidine]-5-yl)-3-methylurea], the half-maximal inhibitory concentration (IC50) was in the range of 500 to 2000 nM. `CNC(=O)Nc1cc(F)c2c(c1)CC[C@@]21OC(=O)N(CC(=O)N2[C@@H](C)CC[C@H]2c2ccc(F)c(F)c2)C1=O` [Example 387, 1-((R)-3′-(2-((2S,5S)-2-(3,4-difluorophenyl)-5-methylpyrrolidin-1-yl)-2-oxoethyl)-7-fluoro-2′,4′-dioxo-2,3-dihydrospiro[indene-1,5′-oxazolidine]-5-yl)-3-methylurea]: the half-maximal inhibitory concentration (IC50) lay within 500 to 2000 nM. For `CNC(=O)Nc1ccc2c(c1)CC[C@@]21OC(=O)N(CC(=O)N2CCCc3cc(-c4cnn(C)c4)ccc32)C1=O` [Example 302, (R)-1-methyl-3-(3′-(2-(6-(1-methyl-1H-pyrazol-4-yl)-3,4-dihydroquinolin-1 (2H)-yl)-2-oxoethyl)-2′,4′-dioxo-2,3-dihydrospiro[indene-1,5′-oxazolidine]-5-yl)urea], the half-inhibitory concentration (IC50) is more than 2000 nM. `CNC(=O)Nc1ccc2c(c1F)CC[C@]21OC(=O)N(CC(=O)N2[C@@H](C)CC[C@H]2c2ccc(F)c(F)c2)C1=O` [Example 381, 1-((S)-3′-(2-((2S,5S)-2-(3,4-difluorophenyl)-5-methylpyrrolidin-1-yl)-2-oxoethyl)-4-fluoro-2′,4′-dioxo-2,3-dihydrospiro[indene-1,5′-oxazolidine]-5-yl)-3-methylurea]: the IC50 was more than 2000 nM. As to `CNC(=O)Nc1ccc2c(c1)CC[C@]21OC(=O)N(CC(=O)N2CCc3ccccc3C2)C1=O` [Example 311, (S)-1-(3′-(2-(3,4-dihydroisoquinolin-2(1H)-yl)-2-oxoethyl)-2′,4′-dioxo-2,3-dihydrospiro[indene-1,5′-oxazolidine]-5-yl)-3-methylurea], the half-inhibitory concentration (IC50) was more than 2000 nM. Same read-out and setting: then `CNC(=O)Nc1ccc2c(c1)CC[C@@]21OC(=O)N(CC(=O)N2CCCC2c2ccccc2)C1=O` (stereo partly drawn) [Example 303, 1-((1R)-2′,4′-dioxo-3′-(2-oxo-2-(2-phenylpyrrolidin-1-yl)ethyl)-2,3-dihydrospiro[indene-1,5′-oxazolidine]-5-yl)-3-methylurea], with 500 to 2000 nM; and `CNC(=O)Nc1ccc2c(c1)CC[C@@]21OC(=O)N(CC(=O)N2CCCC3CCCCC32)C1=O` (stereo partly drawn) [Example 12, 1-methyl-3-((1R)-3′-(2-(octahydroquinolin-1-(2H)-yl)-2-oxoethyl)-2′,4′-dioxo-2,3-dihydrospiro[indene-1,5′-oxazolidine]-5-yl)urea], with more than 2000 nM; and `CNC(=O)Nc1ccc2c(c1)CC[C@@]21OC(=O)N(CC(=O)N2C3CCC2CC3)C1=O` [Example 7, 1-((R)-3′-(2-((1S,4S)-7-azabicyclo[2.2.1]heptan-7-yl)-2-oxoethyl)-2′,4′-dioxo-2,3-dihydrospiro[indene-1,5′-oxazolidine]-5-yl)-3-methylurea], with more than 2000 nM. Turning to `CNC(=O)Nc1ccc2c(c1)CC[C@@]21OC(=O)N(CC(=O)N2CCC[C@H]2C(=O)N2CC3CC2CO3)C1=O` (stereo partly drawn) [Example 328, 1-(3′-(2-((2S)-2-(2-oxa-5-azabicyclo[2.2.1]heptan-5-carbonyl)pyrrolidin-1-yl)-2-oxoethyl)-2′,4′-dioxo-2,3-dihydrospiro[indene-1,5′-oxazolidine]-5-yl)-3-methylurea], the IC50 is more than 2000 nM. Consider `CNC(=O)Nc1ccc2c(c1)CC[C@@]21OC(=O)N(CC(=O)N2CCCC2c2ccccc2OC)C1=O` (single isomer, unassigned) [Example 338], for which the 50% inhibitory concentration (IC50) is more than 2000 nM.

Take `CNC(=O)Nc1ccc2c(c1)CC[C@@]21OC(=O)N(CC(=O)N2CCCc3ccc(C(F)(F)F)cc32)C1=O` [Example 300, (R)-1-(2′,4′-dioxo-3′-(2-oxo-2-(7-(trifluoromethyl)-3,4-dihydroquinolin-1(2H)-yl)ethyl)-2,3-dihydrospiro[indene-1,5′-oxazolidine]-5-yl)-3-methylurea]: the IC50 is more than 2000 nM. For `CO[C@@H](C)C(=O)Nc1ccc2c(c1)CC[C@@]21OC(=O)N(CC(=O)N2[C@@H](C)CC[C@H]2c2ccc(F)cc2)C1=O` [Example 377, (S)—N—((R)-3′-(2-((2S,5S)-2-(4-fluorophenyl)-5-methylpyrrolidin-1-yl)-2-oxoethyl)-2′,4′-dioxo-2,3-dihydrospiro[indene-1,5′-oxazolidine]-5-yl)-2-methoxypropionamide], the IC50 fell in the range of 500 to 2000 nM. Take `CNC(=O)Nc1ccc2c(c1)CC[C@]21OC(=O)N(CC(=O)N2C[C@H]3C[C@@H]2CO3)C1=O` [Example 315, 1-((S)-3′-(2-((1R,4R)-2-oxa-5-azabicyclo[2.2.1]heptan-5-yl)-2-oxoethyl)-2′,4′-dioxo-2,3-dihydrospiro[indene-1,5′-oxazolidine]-5-yl)-3-methylurea]: the IC50 is more than 2000 nM. The same measure, in the same setting: under `CNC(=O)Nc1ccc2c(c1)CC[C@@]21OC(=O)N(CC(=O)N[C@]23C[C@H]4C[C@H](C[C@H](C4)C2)C3)C1=O` [Example 99] stands more than 2000 nM.

Still in this test, the particulars now being: Homo sapiens, CWR22Rv1, 144 h, 6 days culture, read-out: IC50 against CWR22RV1 cells (text).
As for `CNC(=O)Nc1ccc2c(c1)CC[C@@]21OC(=O)N(CC(=O)N2C(C)CCC2c2ccc(F)c(Cl)c2)C1=O` (stereo partly drawn) [Example 359, 1-((1R)-3′-(2-(2-(3-chloro-4-fluorophenyl)-5-methylpyrrolidin-1-yl)-2-oxoethyl)-2′,4′-dioxo-2,3-dihydrospiro[indene-1,5′-oxazolidine]-5-yl)-3-methylurea], the half-inhibitory concentration (IC50) was not above 500 nM.

Take `CNC(=O)Nc1ccc2c(c1)CC[C@@]21OC(=O)N(CC(=O)N2[C@@H](C)CC[C@H]2C2CCCCC2)C1=O` [Example 357, 1-((R)-3′-(2-((2S,5S)-2-cyclohexyl-5-methylpyrrolidin-1-yl)-2-oxoethyl)-2′,4′-dioxo-2,3-dihydrospiro[indene-1,5′-oxazolidine]-5-yl)-3-methylurea]: the half-maximal inhibitory concentration (IC50) was not above 500 nM.
